The values below are quoted from earlier work in patent US20050165041A1, “Combination for the treatment of airway disorders” (Altana Pharma AG, priority 2002, published 2005).

For data set [1] the following is noted: combination with theophyllin.
For data set [2] the following is noted: 8-week double-blind, placebo-controlled crossover study; sole medication.
The subject of the next data set is HCl-induced lung lesions. As to conditions: rats.

With `Cc1c(OCC(F)(F)F)ccnc1C[S+]([O-])c1nc2ccccc2[nH]1` (stereo not shown) [lansoprazole], the “pharmacokinetic interaction with theophyllin” value in data set [1] is on record as “lack of pharmacokinetic interaction”.
On to `COc1ccc2[nH]c([S+]([O-])Cc3ncc(C)c(OC)c3C)nc2c1` (stereo not shown) [omeprazole, 5-methoxy-2-[(4-methoxy-3,5-dimethyl-2-pyridinyl)methylsulphinyl]-1H-benzimidazole], for which the nocturnal asthma symptoms entry in data set [2] is reported as “reduction in nocturnal asthma symptoms”. For the same molecule, in the data set on HCl-induced lung lesions, the “effect on HCl-induced lung lesions” value is on record as “beneficial effect”.
Turning to `COc1ccnc(C[S+]([O-])c2nc3ccc(OC(F)F)cc3[nH]2)c1OC` (stereo not shown) [pantoprazole, 5-difluoromethoxy-2-[(3,4-dimethoxy-2-pyridinyl)methylsulphinyl]-1H-benzimidazole], the “pharmacokinetic interaction with theophyllin” value in data set [1] is “lack of pharmacokinetic interaction”.
